These results are taken from patent US12122761B2, “2-azaspiro[3.4]octane derivatives as M4 agonists” (NOVARTIS AG, priority 2019, dated 2024).

Molecules are shown by their SMILES.

The assay addresses T1, human cloned CHRM2 receptor (M2_CHO cells) (Homo sapiens, UniProt P08172).
T1 construct: expressed in transfected cells; host or cells: CHO-K1
T1 sequence (P08172 1-466): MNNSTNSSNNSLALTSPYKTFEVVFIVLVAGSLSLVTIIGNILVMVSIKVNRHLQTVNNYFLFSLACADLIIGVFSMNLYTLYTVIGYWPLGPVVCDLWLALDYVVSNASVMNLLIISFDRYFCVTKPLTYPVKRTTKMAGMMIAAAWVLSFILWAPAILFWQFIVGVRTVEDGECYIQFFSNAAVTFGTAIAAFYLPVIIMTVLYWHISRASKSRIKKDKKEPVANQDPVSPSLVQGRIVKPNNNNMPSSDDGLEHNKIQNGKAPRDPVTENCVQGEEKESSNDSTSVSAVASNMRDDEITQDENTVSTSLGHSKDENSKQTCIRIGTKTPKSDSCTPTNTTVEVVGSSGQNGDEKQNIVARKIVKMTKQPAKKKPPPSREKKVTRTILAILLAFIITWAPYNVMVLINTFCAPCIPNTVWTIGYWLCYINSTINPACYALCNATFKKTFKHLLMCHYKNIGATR
Briefly: CHRM2 Ca++ Flux Assay (agonist mode, FDSS 7000EX). In kind it is cell-based. Conditions: for M2 FDSS PA: Percent Activity measured to EC100 of Carbachol; for EC50: agonist mode, geometric mean if tested more than once, read-out: M2 FDSS EC50. On the procedure:
The above examples were characterized by measuring the intracellular mobilization of Ca++ ions caused by signaling events mediated by the receptor. The Intra-cellular Calcium flux levels were captured by the highly sensitive Ca++ indicator, Calcium Assay Kit (BD Biosciences, Catalog Number 640178). The fluorescent activity from all receptors were monitored by the fluorescent imager, FDSS 7000EX (Hamamatsu) over a span of 3 minutes.
CHO-K1 cells stably expressing the human cloned CHRM2 receptor (M2_CHO cells) were grown and maintained in a monolayer culture with F12/HAM (Life Technologies) supplemented with 10% Fetal Bovine Serum, 1× Pen-Strep, and 0.4 mg/mL Geneticin in a humidified atmosphere (5% CO2) at 37° C. The cultures were grown to 80-9 0% confluency in T150 flasks (Corning) and washed with 1×DPBS and lifted with 0.05% Trypsin (Life Technologies). The cells were then spun (1K rpm, 3 minutes) and frozen using Recovery Cell Culture Freezing Media (Gibco Technologies). Cells were stored in liquid nitrogen and thawed a day before the assay.
Prior to the day of the assay, stable M2 CHO cells were thawed and plated on Greiner 384 well TC treated plate at a density of 12K cells/well and kept overnight in a humidified atmosphere (5% CO2) at 37° C. The following day, the cells were loaded with Ca^++ dye (BD Biosciences) using Loading Buffer (HBSS +Ca/+Mg, 20 mM HEPES, 2.5 mM Probenecid) and placed back in cell incubator for a minimum of 1 hour and maximum of 2 hours. After incubation, the dye was replaced with Assay Buffer (HBSS −Ca/−Mg, 20 mM HEPES, 2.5 mM Probenecid) supplemented with 20 μM ATP (Sigma Aldrich) and kept at room temperature for 60 minutes prior before running on cell imager. The FDSS 7000EX (Hamamatsu) was used to acquire Ca^++ traces from cells in response to compound treatment and the data was used to generate dose response curves in agonist mode. All compounds were serially diluted in DMSO then prepared in Assay Buffer for Ca^++ flux studies. The dose response curves were generated from the average of triplicate wells obtained from each data point and used a non-linear regression of four parameter dose response algorithm. The Percent Activity (PA) was measured to EC100 of Carbachol.

Consider `O[C@H]1CC[C@@H](c2ccccc2C2CCN([C@@H]3CCC4(C3)CN(c3nnco3)C4)CC2)CC1` (single isomer, unassigned) [Example 2N, (1S,4s)-4-(2-(1-((R)-2-(1,3,4-oxadiazol-2-yl)-2-azaspiro[3.4]octan-6-yl)piperidin-4-yl)phenyl)cyclohexan-1-ol or (1R,4r)-4-(2-(1-((R)-2-(1,3,4-oxadiazol-2-yl)-2-azaspiro[3.4]octan-6-yl)piperidin-4-yl)phenyl)cyclohexan-1-ol], for which the “M2 FDSS PA” value was 0%. As for `OC1CCC(c2ccccc2C2CCN([C@@H]3CCC4(C3)CN(c3nnco3)C4)CC2)CC1` (single isomer, unassigned) [Example 2O, (1s,4r)-4-(2-(1-((R)-2-(1,3,4-oxadiazol-2-yl)-2-azaspiro[3.4]octan-6-yl)piperidin-4-yl)phenyl)cyclohexan-1-ol or (1r,4r)-4-(2-(1-((R)-2-(1,3,4-oxadiazol-2-yl)-2-azaspiro[3.4]octan-6-yl)piperidin-4-yl)phenyl)cyclohexan-1-ol], the “M2 FDSS PA” value is 28% and the concentration for a half-maximal effect (EC50) (in general, the concentration that produces a half-maximal response) worked out at 0.09 µM. As for `O=C(N1CC2(CC[C@@H](N3CCC(c4ccccc4OCCC(F)(F)F)CC3)C2)C1)C1(F)CC1` (single isomer, unassigned) [Example 7AA, (R)-(1-fluorocyclopropyl)(6-(4-(2-(3,3,3-trifluoropropoxy)phenyl)piperidin-1-yl)-2-azaspiro[3.4]octan-2-yl)methanone or (S)-(1-fluorocyclopropyl)(6-(4-(2-(3,3,3-trifluoropropoxy)phenyl)piperidin-1-yl)-2-azaspiro[3.4]octan-2-yl)methanone], the “M2 FDSS PA” value came out at 0%. The same measure, in the same setting: the result for `CC(C)(O)CCOc1ccccc1C1CCN([C@@H]2CCC3(C2)CN(C(=O)C2(F)CC2)C3)CC1` (single isomer, unassigned) [Example 7BB, (R)-(1-fluorocyclopropyl)(6-(4-(2-(3-hydroxy-3-methylbutoxy)phenyl)piperidin-1-yl)-2-azaspiro[3.4]octan-2-yl)methanone or (S)-(1-fluorocyclopropyl)(6-(4-(2-(3-hydroxy-3-methylbutoxy)phenyl)piperidin-1-yl)-2-azaspiro[3.4]octan-2-yl)methanone] reads 0%.

`COC(C)(C)CCOc1ccccc1C1CCN([C@@H]2CCC3(C2)CN(C(=O)C2(F)CC2)C3)CC1` (single isomer, unassigned) [Example 7FF, (R)-(1-fluorocyclopropyl)(6-(4-(2-(3-methoxy-3-methylbutoxy)phenyl)piperidin-1-yl)-2-azaspiro[3.4]octan-2-yl)methanone or (S)-(1-fluorocyclopropyl)(6-(4-(2-(3-methoxy-3-methylbutoxy)phenyl)piperidin-1-yl)-2-azaspiro[3.4]octan-2-yl)methanone]: the “M2 FDSS PA” value is given as 0%. Still for that read-out and setting: the result for `O=C(N1CC2(CC[C@@H](N3CCC(c4ccccc4OCc4ncccn4)CC3)C2)C1)C1(F)CC1` (single isomer, unassigned) [Example 7M, (R)-(1-fluorocyclopropyl)(6-(4-(2-(pyrimidin-2-ylmethoxy)phenyl)piperidin-1-yl)-2-azaspiro[3.4]octan-2-yl)methanone or (S)-(1-fluorocyclopropyl)(6-(4-(2-(pyrimidin-2-ylmethoxy)phenyl)piperidin-1-yl)-2-azaspiro[3.4]octan-2-yl)methanone] reads 0%. On the same count and under the same terms, for `O=C(N1CC2(CC[C@@H](N3CCC(c4ccccc4OCCO)CC3)C2)C1)C1(F)CC1` (single isomer, unassigned) [Example 7N, (R)-(1-fluorocyclopropyl)(6-(4-(2-(2-hydroxyethoxy)phenyl)piperidin-1-yl)-2-azaspiro[3.4]octan-2-yl)methanone or (S)-(1-fluorocyclopropyl)(6-(4-(2-(2-hydroxyethoxy)phenyl)piperidin-1-yl)-2-azaspiro[3.4]octan-2-yl)methanone] the value was 0%. Still for that read-out and setting: the result for `O=C(N1CC2(CC[C@@H](N3CCC(c4ccccc4OCC4CC4)CC3)C2)C1)C1(F)CC1` (single isomer, unassigned) [Example 7O, (R)-(6-(4-(2-(cyclopropylmethoxy)phenyl)piperidin-1-yl)-2-azaspiro[3.4]octan-2-yl)(1-fluorocyclopropyl)methanone or (R)-(6-(4-(2-(cyclopropylmethoxy)phenyl)piperidin-1-yl)-2-azaspiro[3.4]octan-2-yl)(1-fluorocyclopropyl)methanone] reads 0%; that for `O=C1CCCN1CCOc1ccccc1C1CCN([C@@H]2CCC3(C2)CN(C(=O)C2(F)CC2)C3)CC1.O=CO` (single isomer, unassigned) [Example 7P, (R)-1-(2-(2-(1-(2-(1-fluorocyclopropane-1-carbonyl)-2-azaspiro[3.4]octan-6-yl)piperidin-4-yl)phenoxy)ethyl)pyrrolidin-2-one formate salt or (S)-1-(2-(2-(1-(2-(1-fluorocyclopropane-1-carbonyl)-2-azaspiro[3.4]octan-6-yl)piperidin-4-yl)phenoxy)ethyl)pyrrolidin-2-one formate salt], 0%; that for `O=C(N1CC2(CC[C@@H](N3CCC(c4ccccc4OCC4CCOCC4)CC3)C2)C1)C1(F)CC1` (single isomer, unassigned) [Example 7Q, (R)-(1-fluorocyclopropyl)(6-(4-(2-((tetrahydro-2H-pyran-4-yl)methoxy)phenyl)piperidin-1-yl)-2-azaspiro[3.4]octan-2-yl)methanone or (S)-(1-fluorocyclopropyl)(6-(4-(2-((tetrahydro-2H-pyran-4-yl)methoxy)phenyl)piperidin-1-yl)-2-azaspiro[3.4]octan-2-yl)methanone], 0%.

As to `Cc1nnc(COc2ccccc2C2CCN([C@@H]3CCC4(C3)CN(C(=O)C3(F)CC3)C4)CC2)s1` (single isomer, unassigned) [Example 7R, (R)-(1-fluorocyclopropyl)(6-(4-(2-((5-methyl-1,3,4-thiadiazol-2-yl)methoxy)phenyl)piperidin-1-yl)-2-azaspiro[3.4]octan-2-yl)methanone or (S)-(1-fluorocyclopropyl)(6-(4-(2-((5-methyl-1,3,4-thiadiazol-2-yl)methoxy)phenyl)piperidin-1-yl)-2-azaspiro[3.4]octan-2-yl)methanone], the “M2 FDSS PA” value stood at 15% and the half-maximal effective concentration (EC50) worked out at 6.59 µM. Regarding `CCOc1ccccc1C1CCN([C@@H]2CCC3(C2)CN(C(=O)C2(F)CC2)C3)CC1` (single isomer, unassigned) [Example 7S, (R)-(6-(4-(2-ethoxyphenyl)piperidin-1-yl)-2-azaspiro[3.4]octan-2-yl)(1-fluorocyclopropyl)methanone or (S)-(6-(4-(2-ethoxyphenyl)piperidin-1-yl)-2-azaspiro[3.4]octan-2-yl)(1-fluorocyclopropyl)methanone], the “M2 FDSS PA” value came out at 0%.

Regarding `O=C(N1CC2(CC[C@@H](N3CCC(c4ccccc4OCC4CC4)CC3)C2)C1)C1(F)CC1` (single isomer, unassigned) [Example 7T, (R)-(6-(4-(2-(cyclopropylmethoxy)phenyl)piperidin-1-yl)-2-azaspiro[3.4]octan-2-yl)(1-fluorocyclopropyl)methanone or (R)-(6-(4-(2-(cyclopropylmethoxy)phenyl)piperidin-1-yl)-2-azaspiro[3.4]octan-2-yl)(1-fluorocyclopropyl)methanone], the “M2 FDSS PA” value is listed as 19% and the EC50 amounted to 18.6 µM. In the case of `Cc1noc(C)c1COc1ccccc1C1CCN([C@@H]2CCC3(C2)CN(C(=O)C2(F)CC2)C3)CC1` (single isomer, unassigned) [Example 7U, (R)-(6-(4-(2-((3,5-dimethylisoxazol-4-yl)methoxy)phenyl)piperidin-1-yl)-2-azaspiro[3.4]octan-2-yl)(1-fluorocyclopropyl)methanone or (S)-(6-(4-(2-((3,5-dimethylisoxazol-4-yl)methoxy)phenyl)piperidin-1-yl)-2-azaspiro[3.4]octan-2-yl)(1-fluorocyclopropyl)methanone], the “M2 FDSS PA” value is on record as 0%.
